Measurements published in ChEMBL document CHEMBL1134095, “Biaryl ether retrohydroxamates as potent, long-lived, orally bioavailable MMP inhibitors” (Bioorg Med Chem Lett, 2001).

Columns and labels:
Stromelysin-1 = Stromelysin-1 (Homo sapiens, UniProt P08254); assay: In vitro inhibition of Matrix metalloprotease-3
[1] = Half life determined after intravenous administration at a dose of 3 mg/kg in cynomolgus monkey; format: ADME, organism-based, Macaca fascicularis; design: dose 3 mg/kg, route intravenous; details: in vivo
[2] = Area under curve determined after intravenous administration at a dose of 3 mg/kg in cynomolgus monkey; format: ADME, organism-based, Macaca fascicularis; design: dose 3 mg/kg, route intravenous; details: in vivo
[3] = biological target: 72 kDa type IV collagenase (Homo sapiens, UniProt P08253); assay: In vitro inhibition of Matrix metalloprotease-2
Chain of 72 kDa type IV collagenase (P08253 whole entry): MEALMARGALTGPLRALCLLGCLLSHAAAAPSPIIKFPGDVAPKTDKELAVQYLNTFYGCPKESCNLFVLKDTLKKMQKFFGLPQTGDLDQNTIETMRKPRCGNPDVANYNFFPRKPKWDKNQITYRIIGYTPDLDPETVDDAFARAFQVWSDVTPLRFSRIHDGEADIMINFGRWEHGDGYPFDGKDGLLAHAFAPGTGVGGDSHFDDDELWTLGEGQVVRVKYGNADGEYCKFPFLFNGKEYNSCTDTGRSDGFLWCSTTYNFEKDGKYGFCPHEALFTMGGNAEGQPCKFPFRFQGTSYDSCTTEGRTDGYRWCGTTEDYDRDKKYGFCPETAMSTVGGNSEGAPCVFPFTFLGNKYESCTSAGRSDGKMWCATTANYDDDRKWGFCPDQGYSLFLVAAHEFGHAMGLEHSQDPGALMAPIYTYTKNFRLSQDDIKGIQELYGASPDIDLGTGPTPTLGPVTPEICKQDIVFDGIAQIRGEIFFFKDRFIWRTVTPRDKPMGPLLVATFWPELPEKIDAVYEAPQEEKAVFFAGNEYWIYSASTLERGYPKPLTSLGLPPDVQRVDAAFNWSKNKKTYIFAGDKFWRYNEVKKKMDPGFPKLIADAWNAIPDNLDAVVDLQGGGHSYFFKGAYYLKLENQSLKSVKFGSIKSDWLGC

[4] = Oral bioavailability in cynomolgus monkey; format: ADME, organism-based, Macaca fascicularis; details: in vivo
[5] = Area under curve determined after peroral administration at a dose of 10 mg/kg in cynomolgus monkey; format: ADME, organism-based, Macaca fascicularis; design: dose 10 mg/kg, route oral; details: in vivo, po
[6] = Area under curve determined after peroral administration at a dose of 3 mg/kg in cynomolgus monkey; format: ADME, organism-based, Macaca fascicularis; design: dose 3 mg/kg, route oral; details: in vivo, po
Interstitial collagenase = biological target: T1, Interstitial collagenase (Homo sapiens, UniProt P03956); assay: In vitro inhibition of Matrix metalloprotease-1.
T1 sequence (P03956 whole entry): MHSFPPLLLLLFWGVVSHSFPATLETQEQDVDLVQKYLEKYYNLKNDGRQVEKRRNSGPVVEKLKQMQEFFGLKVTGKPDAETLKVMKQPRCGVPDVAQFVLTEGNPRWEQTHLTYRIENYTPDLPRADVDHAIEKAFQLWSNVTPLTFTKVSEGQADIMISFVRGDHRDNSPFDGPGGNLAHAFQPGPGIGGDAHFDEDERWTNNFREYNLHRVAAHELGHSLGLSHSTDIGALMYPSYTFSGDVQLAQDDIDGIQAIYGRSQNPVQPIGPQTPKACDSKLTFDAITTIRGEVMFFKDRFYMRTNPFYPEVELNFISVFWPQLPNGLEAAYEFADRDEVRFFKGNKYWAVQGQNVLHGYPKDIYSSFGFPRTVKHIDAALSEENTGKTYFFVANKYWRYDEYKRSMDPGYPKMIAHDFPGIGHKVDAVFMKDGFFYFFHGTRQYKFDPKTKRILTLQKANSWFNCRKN

[7] = Half life after iv administration in cynomolgus monkey; format: ADME, organism-based, Macaca fascicularis; details: in vivo
[8] = Oral Bioavailability in rat; format: ADME, organism-based; details: in vivo
[9] = Half life determined in rat by intravenous administration; format: ADME, organism-based; details: in vivo
[10] = Bioavailability determined after oral administration in marmoset; format: ADME, organism-based; details: callitrichinae sp., in vivo

Chain of Stromelysin-1 (P08254 whole entry): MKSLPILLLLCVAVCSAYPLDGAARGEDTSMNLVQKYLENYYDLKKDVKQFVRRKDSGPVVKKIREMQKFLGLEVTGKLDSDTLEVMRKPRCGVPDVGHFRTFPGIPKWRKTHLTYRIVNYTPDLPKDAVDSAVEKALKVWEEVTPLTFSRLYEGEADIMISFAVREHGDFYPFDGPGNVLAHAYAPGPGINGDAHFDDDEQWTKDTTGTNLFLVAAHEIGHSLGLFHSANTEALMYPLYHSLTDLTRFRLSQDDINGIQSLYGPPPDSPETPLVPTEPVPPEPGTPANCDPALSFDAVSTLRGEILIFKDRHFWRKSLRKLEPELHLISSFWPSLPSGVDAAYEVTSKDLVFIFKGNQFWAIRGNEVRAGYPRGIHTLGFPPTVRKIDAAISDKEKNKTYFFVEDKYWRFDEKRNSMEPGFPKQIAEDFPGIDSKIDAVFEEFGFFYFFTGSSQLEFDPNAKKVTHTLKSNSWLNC

Row | SMILES | IC50 (Stromelysin-1) [nM] | half-life [1] [h] | IC50 [3] [nM] | IC50 (Interstitial collagenase) [nM] | also measured
1 | CN1C(=O)N(CC(COc2ccc(-c3ccc(C#N)cc3)cc2)N(O)C=O)C(=O)C1(C)C (stereo unspecified) | 9.1 | 2.5 | 58000 |  | AUC [2]: 15.2 uM hr l-1; bioavailability [4]: 23%; AUC [5]: 11.8 uM hr l-1
2 | CC1(C)NC(=O)N(CCC(COc2ccc(-c3ccc(C#N)cc3)cc2)N(O)C=O)C1=O (stereo unspecified) | 35 | 12.7 | 6900 | 14000 | AUC [6]: 2.4 uM hr l-1; AUC [2]: 47.5 uM hr l-1; bioavailability [4]: 6%
3 | CCN1C(=O)N(CC(COc2ccc(-c3ccc(C#N)cc3)cc2)N(O)C=O)C(=O)C1(C)C (stereo unspecified) | 27 | 1.8 | 12000 | 2400 | AUC [2]: 12.3 uM hr l-1
4 | CC1(C)CC(=O)N(CC(COc2ccc(-c3ccc(C#N)cc3)cc2)N(O)C=O)C(=O)C1 (stereo unspecified) | 37 |  | 25000 | 360 | 
5 | N#Cc1ccc(-c2ccc(OCC(Cc3ccc(F)cc3)N(O)C=O)cc2)cc1 (stereo unspecified) | 180 |  |  | 14000 | half-life [7]: < 1 h
6 | N#Cc1ccc(-c2ccc(OCCC(=O)O)cc2)cc1 | > 10 |  | 8000 |  | 
7 | CN1C(=O)N(CCC(COc2ccc(-c3ccc(C#N)cc3)cc2)N(O)C=O)C(=O)C1(C)C (stereo unspecified) | 17 | 0.5 | 45000 | > 10000 | AUC [2]: 8 uM hr l-1; bioavailability [4]: 6%; AUC [5]: 1.8 uM hr l-1
8 | N#Cc1ccc(-c2ccc(OCCN(O)C=O)cc2)cc1 | 0.062 |  | 400 | > 50 | 
9 | N#Cc1ccc(-c2ccc(OCC(CN3C(=O)c4ccccc4C3=O)N(O)C=O)cc2)cc1 (stereo unspecified) | 21 | 0.3 | 37000 | > 10000 | 
10 | N#Cc1ccc(-c2ccc(OCCC(=O)NO)cc2)cc1 | 0.057 |  | 32 | 3.3 | 
11 | N#Cc1ccc(-c2ccc(OCC(c3ccc(F)cc3)N(O)C=O)cc2)cc1 (stereo unspecified) | 300 |  |  | > 10000 | half-life [7]: < 1 h
12 | N#Cc1ccc(-c2ccc(OCC(CSc3ccccc3)N(O)C=O)cc2)cc1 (stereo unspecified) | 36 | 0.3 |  | 4100 | half-life [7]: < 1 h
13 | CC(COc1ccc(-c2ccc(C#N)cc2)cc1)N(O)C=O (stereo unspecified) | 620 |  | 76000 | > 10000 | bioavailability [8]: 33%; half-life [9]: 1.6 h
14 | N#Cc1ccc(-c2ccc(OCC(CN3C(=O)CNC3=O)N(O)C=O)cc2)cc1 (stereo unspecified) | 14 | 7.3 | 8200 | 2400 | AUC [6]: 68 uM hr l-1; AUC [2]: 59.8 uM hr l-1; bioavailability [4]: 100%
15 | CC1(C)NC(=O)N(CC(COc2ccc(-c3ccc(C#N)cc3)cc2)N(O)C=O)C1=O (stereo unspecified) | 24 | 7.7 | 7800 | 2100 | AUC [6]: 27.2 uM hr l-1; AUC [2]: 24 uM hr l-1; bioavailability [4]: 110%; bioavailability [10]: 85%
16 | N#Cc1ccc(-c2ccc(OCC(COc3ccccc3)N(O)C=O)cc2)cc1 (stereo unspecified) | 130 |  |  | > 10000 | half-life [7]: < 1 h
17 | Cc1ccc(=O)n(CC(COc2ccc(-c3ccc(C#N)cc3)cc2)N(O)C=O)n1 (stereo unspecified) | 37 | 0.5 | 3400 | 4200 | 
18 | CC(=O)N(O)CCOc1ccc(-c2ccc(C#N)cc2)cc1 |  |  | 5900 |  | 
19 | CC(COc1ccc(-c2ccc(C#N)cc2)cc1)C(=O)NO (stereo unspecified) | 45 |  | 19000 | 2500 | bioavailability [8]: 7%; half-life [9]: 0.3 h
20 | N#Cc1ccc(-c2ccc(OCCNC(=O)NO)cc2)cc1 | 80 |  | > 100000 | > 50 | 
21 | CC(C)CC(COc1ccc(-c2ccc(C#N)cc2)cc1)N(O)C=O (stereo unspecified) | 120 |  |  | > 10000 | half-life [7]: < 1 h
22 | N#Cc1ccc(-c2ccc(OCCN(O)C(N)=O)cc2)cc1 | > 100 |  | 35000 | > 50 | 
23 | N#Cc1ccc(-c2ccc(OCC(CN3C(=O)CCC3=O)N(O)C=O)cc2)cc1 (stereo unspecified) | 11 | 0.6 | 5200 | > 10000 | 
